From patent US20140349955A1, “USE OF FLUORINE-CONTAINING WATER SOLUBLE PLATINUM COMPLEX IN PREPARING DRUGS FOR PREVENTION AND TREATMENT OF CANCERS” (GUDUI BIOPHARMA TECHNOLOGY INC., priority 2011, published 2014)

Tests used:
Type in all cases: cell-based, human
Conditions in all cases: 96 h
[1] = test system: A549; assay: Synergistic cytotoxicity test (MTS), A549
Method: (§1) Containing 10% bovine fetal serum, 1 mM of sodium pyruvate, 2 mM of L-glutamine, 50 U/mL of penicillin, 50 μg/ mL of streptomycin.
(§2) Human tumor cells: du145-human prostate cancer; MCF-7-human breast cancer; SK0V3-human ovarian carcinoma, HT-29-human colon cancer; A549-human non-small cell lung cancer (adenocarcinoma), H460-human non-small cell lung cancer (large cell carcinoma), and animal tumor cells: L1210-mice leukemia cells used in the following activity test experiments were all purchased from Shanghai An Yan Commercial Trade Co., Ltd.
(§3) MTS test method was used in cytotoxicity assay. The tumor cells of logarithmic phase were collected, and then the concentration of cell suspension was adjusted, 100 μL of the cell suspension was added to each well, the cells were placed at 1000-10000 cells/well (edge well filled with sterile PBS). Cells were incubated at 37° C. with 5% CO2 to make cell monolayer overspread the bottom of each well (96-well flat-bottomed microplate). 100 μL of certain concentration solution of a mixture of the fluorine-containing water-soluble platinum complex with other antitumor agents was added to each well. Each condition was measured in five replicates. The microplate was incubated at 37° C. with 5% CO2 for 96 h and checked with inverted microscope. MTS working reagent: To 2 mL of MTS (2 mg/mL, prepared by DPBS) was added 100 μL of PMS (1 mg/mL, prepared by DPBS). The cell culture medium was discarded after centrifugation, the cell culture plate was carefully washed 2-3 times with PBS. Before detecting the absorbance value (OD), to each sample containing well was added 100 μL of cell culture medium, then 20 μL of MTS working reagent was added. After incubation at 37° C. with 5% CO2 for 2 h, the OD (optical density) value was detected at 490 nm.
(§4) Each of above experiment was repeated five times, and the cell viability was calculated according to the mean OD values.
(§5) Cell Viability (%)=(treated group OD value/control group OD value)×100
(§6) Control group: the conditions are the same as the above without adding the tested drug mixture (100 μL of culture medium was added in stead), and finally the absorbance was measured at 490 nm to obtain the OD value of the tumor cells.
(§7) Drug Group-1: only the fluorine-containing water-soluble platinum complex was added under the above conditions to obtain cell viability of tumor cells.
(§8) Drug Group-2: only the other chemotherapeutic drug (active ingredient) was added under the above conditions to obtain cell viability of tumor cells.
(§9) Drug Combination Group: the fluorine-containing water-soluble platinum complex and other chemotherapeutic drugs were added simultaneously under the above conditions to obtain cell viability of tumor cell. (2) Evaluation Method:
(§10) When the fluorine-containing water-soluble platinum complexes used in combination with other chemotherapy drugs, the inhibition effect on cancer cell proliferation is enhanced or synergistic, and the effect was calculated using the following formula:
(§11) Combination Effect (%)={[(A1-X)+(A2-X)]/(A1-A2)|}×100
(§12) wherein, A1 is the cell viability of drug group-1, A2 is the cell viability of drug group-2, X is the cell viability of drug combination group, (A1-A2)| is the absolute value of the cell viability difference between the two groups.
(§13) Calculated according to the above formula, when the results of [Combination Effect (%)]>+100%, that means the effect of inhibition on cell proliferation is enhanced or synergistic (3) Experimental Result: […]

[2] = test system: SK0V3; assay: Synergistic cytotoxicity test (MTS), SKOV3
Method: as §1, §2, §3, §4, §5, §6, §7, §8, §9, §10, §11, §12, §13

[3] = test system: MCF7; assay: Synergistic cytotoxicity test (MTS), MCF7
Method: as §1, §2, §3, §4, §5, §6, §7, §8, §9, §10, §11, §12, §13

[4] = test system: HT29; assay: Synergistic cytotoxicity test (MTS), HT29
Method: as §1, §2, §3, §4, §5, §6, §7, §8, §9, §10, §11, §12, §13

[5] = test system: DU145; assay: Synergistic cytotoxicity test (MTS), DU145
Method: as §1, §2, §3, §4, §5, §6, §7, §8, §9, §10, §11, §12, §13

[6] = test system: H460; assay: Synergistic cytotoxicity test (MTS), H460
Method: as §1, §2, §3, §4, §5, §6, §7, §8, §9, §10, §11, §12, §13

[7] = other chemotherapy drug (at its listed dosage) combined with Complex 2 (dosage: 1 μM)
[8] = other chemotherapy drug (at its listed dosage) combined with Complex 3 (dosage: 1 μM)
[9] = other chemotherapy drug (at its listed dosage) combined with Complex 2 (dosage: 1 μM), SLOV3
[10] = other chemotherapy drug (at its listed dosage) combined with Complex 3 (dosage: 1 μM), SlOV3
[11] = other chemotherapy drug (at its listed dosage) combined with Complex 5 (dosage: 1 μM), SLOV3
[12] = other chemotherapy drug (at its listed dosage) combined with Complex 6 (dosage: 1 μM), SLOV3
[13] = other chemotherapy drug (at its listed dosage) combined with Complex 5 (dosage: 1 μM)
[14] = other chemotherapy drug (at its listed dosage) combined with Complex 6 (dosage: 1 μM)

Row | SMILES | the effect of drug combination (Combination Effect) [1, 7] | the effect of drug combination (Combination Effect) [1, 8] | the effect of drug combination (Combination Effect) [2, 9] | the effect of drug combination (Combination Effect) [2, 10] | the effect of drug combination (Combination Effect) [2, 11] | the effect of drug combination (Combination Effect) [2, 12] | the effect of drug combination (Combination Effect) [3, 7] | the effect of drug combination (Combination Effect) [3, 8] | the effect of drug combination (Combination Effect) [3, 13] | the effect of drug combination (Combination Effect) [3, 14] | the effect of drug combination (Combination Effect) [4, 7] | the effect of drug combination (Combination Effect) [4, 8] | the effect of drug combination (Combination Effect) [4, 13] | the effect of drug combination (Combination Effect) [4, 14] | the effect of drug combination (Combination Effect) [5, 7] | the effect of drug combination (Combination Effect) [5, 8] | the effect of drug combination (Combination Effect) [5, 13] | the effect of drug combination (Combination Effect) [5, 14] | the effect of drug combination (Combination Effect) [6, 13] | the effect of drug combination (Combination Effect) [6, 14]
1 | Nc1ccn([C@@H]2O[C@H](CO)[C@@H](O)C2(F)F)c(=O)n1 [Gemcitabine] | ⊚ (⊚ represents the effect of drug combination > 300%) | ⊚ (⊚ represents the effect of drug combination > 300%) | ⊚ (⊚ represents the effect of drug combination > 300%) | ○ (○ represents: 100% < the effect of drug combination < 300%) | ○ (○ represents: 100% < the effect of drug combination < 300%) | ○ (○ represents: 100% < the effect of drug combination < 300%) | ⊚ (⊚ represents the effect of drug combination > 300%) | ⊚ (⊚ represents the effect of drug combination > 300%) | ⊚ (⊚ represents the effect of drug combination > 300%) | ⊚ (⊚ represents the effect of drug combination > 300%) | ⊚ (⊚ represents the effect of drug combination > 300%) | ⊚ (⊚ represents the effect of drug combination > 300%) | ⊚ (⊚ represents the effect of drug combination > 300%) | ⊚ (⊚ represents the effect of drug combination > 300%) | ⊚ (⊚ represents the effect of drug combination > 300%) | ○ (○ represents: 100% < the effect of drug combination < 300%) | ○ (○ represents: 100% < the effect of drug combination < 300%) | ○ (○ represents: 100% < the effect of drug combination < 300%) | ⊚ (⊚ represents the effect of drug combination > 300%) | ⊚ (⊚ represents the effect of drug combination > 300%)
2 | CC(=O)O[C@H]1C(=O)[C@@]2(C)[C@H]([C@H](OC(=O)c3ccccc3)[C@]3(O)C[C@H](OC(=O)[C@H](O)[C@@H](NC(=O)c4ccccc4)c4ccccc4)C(C)=C1C3(C)C)[C@]1(OC(C)=O)CO[C@@H]1C[C@@H]2O [Paclitaxel] | ⊚ (⊚ represents the effect of drug combination > 300%) | ⊚ (⊚ represents the effect of drug combination > 300%) | ⊚ (⊚ represents the effect of drug combination > 300%) | ⊚ (⊚ represents the effect of drug combination > 300%) | ⊚ (⊚ represents the effect of drug combination > 300%) | ⊚ (⊚ represents the effect of drug combination > 300%) | ⊚ (⊚ represents the effect of drug combination > 300%) | ⊚ (⊚ represents the effect of drug combination > 300%) | ⊚ (⊚ represents the effect of drug combination > 300%) | ⊚ (⊚ represents the effect of drug combination > 300%) | ⊚ (⊚ represents the effect of drug combination > 300%) | ⊚ (⊚ represents the effect of drug combination > 300%) | ⊚ (⊚ represents the effect of drug combination > 300%) | ○ (○ represents: 100% < the effect of drug combination < 300%) | ○ (○ represents: 100% < the effect of drug combination < 300%) | ⊚ (⊚ represents the effect of drug combination > 300%) | ⊚ (⊚ represents the effect of drug combination > 300%) | ⊚ (⊚ represents the effect of drug combination > 300%) | ⊚ (⊚ represents the effect of drug combination > 300%) | ⊚ (⊚ represents the effect of drug combination > 300%)
3 | C#Cc1cccc(Nc2ncnc3cc(OCCOC)c(OCCOC)cc23)c1 [Tarceva] | ⊚ (⊚ represents the effect of drug combination > 300%) | ⊚ (⊚ represents the effect of drug combination > 300%) | ○ (○ represents: 100% < the effect of drug combination < 300%) | ○ (○ represents: 100% < the effect of drug combination < 300%) | ○ (○ represents: 100% < the effect of drug combination < 300%) | ○ (○ represents: 100% < the effect of drug combination < 300%) | ○ (○ represents: 100% < the effect of drug combination < 300%) | ○ (○ represents: 100% < the effect of drug combination < 300%) | ○ (○ represents: 100% < the effect of drug combination < 300%) | ○ (○ represents: 100% < the effect of drug combination < 300%) | ⊚ (⊚ represents the effect of drug combination > 300%) | ⊚ (⊚ represents the effect of drug combination > 300%) | ⊚ (⊚ represents the effect of drug combination > 300%) | ⊚ (⊚ represents the effect of drug combination > 300%) | ○ (○ represents: 100% < the effect of drug combination < 300%) | ○ (○ represents: 100% < the effect of drug combination < 300%) | ○ (○ represents: 100% < the effect of drug combination < 300%) | ○ (○ represents: 100% < the effect of drug combination < 300%) | ⊚ (⊚ represents the effect of drug combination > 300%) | ⊚ (⊚ represents the effect of drug combination > 300%)
